Data as given in patent US20220107328A1, “METHODS OF TREATING LIVER DISEASES” (Camp4 Therapeutics Corporation, priority 2018, published 2022).
Values belong to the compound of their own block, whether it stands above or below them.

How the values were obtained:
[1] = tested on: PNPLA3 mRNA; assay: qRT-PCR of PNPLA3 mRNA in compound-treated mouse hepatocytes; format: cell-based; conditions: for Relative PNPLA3 mRNA levels: mouse hepatocytes, 1 μM, normalized to ACTB
[2] = tested on: PNPLA3 mRNA; assay: qRT-PCR of PNPLA3 mRNA in human primary hepatic stellate cells; format: cell-based; conditions: for Relative PNPLA3 mRNA levels RQ: hepatic stellate cells
[3] = tested on: PNPLA3 mRNA; assay: qRT-PCR of PNPLA3 mRNA in compound-treated primary human hepatocytes; conditions: for mrna remaining at 1 µM / mrna remaining at 10 µM: Homo sapiens, Hepatocyte
Method: (§1) Cryopreserved hepatocytes were cultured in plating media for 16 hours, transferred to maintenance media for 4 hours. Cultured on serum-free media for 2 hours, then a compound was added. The hepatocytes were maintained on the serum-free media for 16 hours prior to gene expression analysis.
(§2) Human hepatocytes cultured as described above were plated in 24-well format, adding 375,000 cells per well in a volume of 500 μl plating medium. Four hours before treatment, cells were washed with PBS and the medium was changed to either: fresh maintenance medium (complete) or modified maintenance medium.
(§3) Compound stocks were prepared at 1000× final concentration and added in a 2-step dilution to the medium to reduce risk of a compound precipitating out of solution when added to the cells, and to ensure reasonable pipetting volumes. One at a time, each compound was first diluted 10-fold in warm (about 37° C.) modified maintenance medium (initial dilution=ID), mixed by vortexing, and the ID was diluted 100-fold into the cell culture (e.g. 5.1 μl into 1 well of a 24-well plate containing 0.5 mL medium). The plate was mixed by carefully swirling and after all wells were treated and returned to the incubator overnight. If desired, separate plates/wells were treated with vehicle-only controls and/or positive controls. If using multi-well plates, controls were included on each plate. After about 18 hours, cells were harvested for further analysis, e.g., ChIP-seq, RNA-seq, ATAC-seq, etc.
Analysis of the fold changes in expression as measured by qRT-PCR were performed using the technique below. The control was DMSO, and the treatment was the selected compound (CPD). The internal control was GAPDH or B-Actin (or otherwise indicated), and the gene of interest is the target. First, the averages of the 4 conditions were calculated for normalization: DMSO:GAPDH, DMSO:Target, CPD: GAPDH, and CPD:Target. Next, the ΔCT of both control and treatment were calculated to normalize to internal control (GAPDH) using (DMSO:Target)−(DMSO:GAPDH)=ΔCT control and (CPD:Target)−(CPD: GAPDH)=ΔCT experimental. Then, the ΔΔCT was calculated by ΔCT experimental−ΔCT control. The Expression Fold Change (or Relative Quantification, abbreviated as RQ) was calculated by 2−(ΔΔCT) (2-fold expression change was shown by RNA-Seq results provided herein).
The aim of the validation studies was to test the identified compounds from key pathways, and expand the compound franchise to identify other potential hits. Candidate compounds were subjected to validation with qRT-PCR in human hepatocytes. qRT-PCR was performed on samples of primary human hepatocytes from a second donor treated with the candidate compounds. Compounds were tested at concentrations ranging from 0.01 μM to 50 μM, with the majority tested at 10 μM.
Primary human hepatocytes and stellate cells were also incubated with inhibitors of the TGFβ pathway and PNPLA3 gene expression changes assessed via qRT-PCR as previously described. In addition, primary hepatocytes and stellate cells were treated with TGFβ-ligand alone or with selected the small molecule inhibitors for 18 hours and subsequently harvested. for gene expression assays.
The other set was harvest for mRNA processing as previously described.

[4] = tested on: PNPLA3 expression; assay: RNA-seq of compound-treated primary human hepatocytes; format: cell-based; conditions: PNPLA3 expression, RNA-seq
Method: as §1, §2, §3
The expression level of each gene was quantified with normalized FPKM (fragments per kilobase of exon per million mapped fragments). The differentially expressed genes were called using Cuffdiff v2.2.1 with q value<0.01 and log2 fold change>=1 or <=−1.
To identify small molecules that modulate PNPLA3, primary human hepatocytes were prepared as a monoculture, and at least one small molecule compound was applied to the cells.
RNA-seq was performed to determine the effects of the compounds on PNPLA3 expression in hepatocytes. Fold change was calculated by dividing the level of expression in the cell system that had been perturbed by the level of expression in an unperturbed system. Changes in expression having a p-value≤0.05 were considered significant.

[5] = tested on: COL1A1 mRNA; assay: qRT-PCR of COL1A1 mRNA in human primary hepatic stellate cells; format: cell-based; conditions: for Relative COL1A1 mRNA levels RQ: hepatic stellate cells
Method: Cells were plated at a density of 17000 cells/well in a 96-well plate and allowed to adhere overnight. The following day cell culture media was replenished with the indicated concentration(s) of compound for 18 hours. […] Medium was removed after 18 hours and cells were processed for further analysis, e.g. qRT-PCR.
Analysis of the fold changes in expression as measured by qRT-PCR were performed using the technique below. The control was DMSO, and the treatment was the selected compound (CPD). The internal control was GAPDH or B-Actin (or otherwise indicated), and the gene of interest is the target. First, the averages of the 4 conditions were calculated for normalization: DMSO:GAPDH, DMSO:Target, CPD: GAPDH, and CPD:Target. Next, the ΔCT of both control and treatment were calculated to normalize to internal control (GAPDH) using (DMSO:Target)−(DMSO:GAPDH)=ΔCT control and (CPD:Target)−(CPD: GAPDH)=ΔCT experimental. Then, the ΔΔCT was calculated by ΔCT experimental−ΔCT control.
Candidate compounds were tested in stellate cells for their ability to modulate PNPLA3 and COL1A1. Stellate cells were treated with serial dilutions of the compounds, ranging from 0.1 μM to 100 μM. Changes in PNPLA3 (or COL1A1) mRNA levels in stellate cells were analyzed with qRT-PCR.

[6] = tested on: PCSK9 mRNA; assay: qRT-PCR of PCSK9 mRNA in primary hepatocytes; format: cell-based, human; conditions: donor 4178, 3 μM, relative to GUSB

SMILES: FC(F)(F)c1ccc(/C=C/c2nc(COc3ccc(CCCCn4ccnn4)cc3)co2)cc1 [Mubritinib (TAK 165)]
PNPLA3 mRNA remaining after treatment compared to untreated cells ([1]; Mouse hepatocytes, 1 uM): 1.12
PNPLA3 mRNA remaining after treatment compared to untreated cells ([1]; Mouse hepatocytes, 10 uM): 0.09
PNPLA3 mRNA remaining after treatment compared to untreated cells ([2]; Human Stellate, 1 uM): 0.2
PNPLA3 mRNA remaining after treatment compared to untreated cells ([2]; Human Stellate, 10 uM): 0.78
PNPLA3 mRNA remaining after treatment compared to untreated cells ([3]; H Hep Donor-2, 10 uM): 0.39
PNPLA3 mRNA remaining after treatment compared to untreated cells ([3]; H Hep Donor-3, 10 uM): 0.2
PNPLA3 mRNA remaining after treatment compared to untreated cells ([3]; H Hep Donor-4, 1 uM): 0.55
PNPLA3 mRNA remaining after treatment compared to untreated cells ([3]; H Hep Donor-4, 10 uM): 0.4
PNPLA3 mRNA remaining after treatment compared to untreated cells ([3]; H Hep Donor-5, 1 uM): 0.6
PNPLA3 mRNA remaining after treatment compared to untreated cells ([3]; H Hep Donor-5, 10 uM): 0.25

SMILES: NS(=O)(=O)C#Cc1ccccc1 [Pifithrin-μ, 2-Phenylethynesulfonamide]
Fold change (Log 2) vs untreated [4]: −0.68

SMILES: CC(C)c1cc(CNc2nc(Nc3cc(C4CC4)[nH]n3)cc(N3CCN(C)CC3)n2)on1 [XL228]
mrna remaining at 1 µM ([1]; Hepatocyte, Mouse hepatocytes, 1 uM, read-out: PNPLA3 mRNA remaining after treatment compared to untreated cells): 40%
mrna remaining at 10 µM ([1]; Hepatocyte, Mouse hepatocytes, 10 uM, read-out: PNPLA3 mRNA remaining after treatment compared to untreated cells): 12%
mrna remaining at 1 µM ([2]; Human Stellate, 1 uM, read-out: PNPLA3 mRNA remaining after treatment compared to untreated cells): 80%
mrna remaining at 10 µM ([2]; Human Stellate, 10 uM, read-out: PNPLA3 mRNA remaining after treatment compared to untreated cells): 70%
mrna remaining at 1 µM ([3]; read-out: PNPLA3 mRNA remaining after treatment compared to untreated cells, H Hep Donor-1, 1 uM (stated in cell)): 40%
mrna remaining at 10 µM ([3]; read-out: PNPLA3 mRNA remaining after treatment compared to untreated cells, H Hep Donor-3, 10 uM): 30%
mrna remaining at 1 µM ([3]; read-out: PNPLA3 mRNA remaining after treatment compared to untreated cells, H Hep Donor-4, 1 uM): 55%
mrna remaining at 10 µM ([3]; read-out: PNPLA3 mRNA remaining after treatment compared to untreated cells, H Hep Donor-4, 10 uM): 55%
mrna remaining at 1 µM ([3]; read-out: PNPLA3 mRNA remaining after treatment compared to untreated cells, H Hep Donor-5, 1 uM): 55%
mrna remaining at 10 µM ([3]; read-out: PNPLA3 mRNA remaining after treatment compared to untreated cells, H Hep Donor-5, 10 uM): 25%

SMILES: COc1cccc2cc(-c3nc([C@H]4CC[C@H](C(=O)O)CC4)n4ncnc(N)c34)[nH]c12 [OSI-027/ASP7486]
PNPLA3 mRNA remaining after treatment compared to untreated cells ([1]; Mouse hepatocytes, 1 uM): 0.3
PNPLA3 mRNA remaining after treatment compared to untreated cells ([1]; Mouse hepatocytes, 10 uM): 0.35
PNPLA3 mRNA remaining after treatment compared to untreated cells ([2]; Human Stellate, 1 uM): 0.2
PNPLA3 mRNA remaining after treatment compared to untreated cells ([2]; Human Stellate, 10 uM): 0.65
PNPLA3 mRNA remaining after treatment compared to untreated cells ([3]; H Hep Donor-1, 1 uM (stated in cell)): 0.3 (1 uM)
PNPLA3 mRNA remaining after treatment compared to untreated cells ([3]; H Hep Donor-2, 1 uM (stated in cell)): 0.4 (1 uM)
PNPLA3 mRNA remaining after treatment compared to untreated cells ([3]; H Hep Donor-3, 10 uM): 0.55
PNPLA3 mRNA remaining after treatment compared to untreated cells ([3]; H Hep Donor-4, 1 uM): 0.6
PNPLA3 mRNA remaining after treatment compared to untreated cells ([3]; H Hep Donor-4, 10 uM): 0.38
PNPLA3 mRNA remaining after treatment compared to untreated cells ([3]; H Hep Donor-5, 1 uM): 0.5
PNPLA3 mRNA remaining after treatment compared to untreated cells ([3]; H Hep Donor-5, 10 uM): 0.2

Primary Hepatocytes 4178 PCSK9 (fold change in mRNA expression) [6]: 0.66
Primary Hepatocytes 4178 PNPLA3 (fold change in mRNA expression) ([3]; donor 4178, 3 μM, relative to GUSB): 0.60
Primary Hepatocytes 4282 PNPLA3 (fold change in mRNA expression) ([3]; donor 4282, 3 μM, relative to GUSB): 1.00
SMILES: CO[C@H]1C[C@@H]2CC[C@@H](C)[C@@](O)(O2)C(=O)C(=O)N2CCCC[C@H]2C(=O)O[C@H]([C@H](C)C[C@@H]2CC[C@@H](OCCO)[C@H](OC)C2)CC(=O)[C@H](C)/C=C(\C)[C@@H](O)[C@@H](OC)C(=O)[C@H](C)C[C@H](C)/C=C/C=C/C=C/1C [Everolimus]
Relative PNPLA3 mRNA levels [1]: 0.31 ± 0.10
Primary Stellate cells PNPLA3 (fold change in mRNA expression) ([2]; 3 μM, relative to GAPDH): 0.36
Relative PNPLA3 mRNA levels RQ ([2]; 0.01 μM): 0.64
Relative PNPLA3 mRNA levels RQ ([2]; 0.1 μM): 0.47
Relative PNPLA3 mRNA levels RQ ([2]; 1 μM): 0.56
Relative PNPLA3 mRNA levels RQ ([2]; 10 μM): 0.44
Primary Stellate cells COL1A1 (fold change in mRNA expression) ([5]; 3 μM, relative to GAPDH): 0.93
Relative COL1A1 mRNA levels RQ ([5]; 0.01 μM): 1.07
Relative COL1A1 mRNA levels RQ ([5]; 0.1 μM): 1.01
Relative COL1A1 mRNA levels RQ ([5]; 1 μM): 1.12
Relative COL1A1 mRNA levels RQ ([5]; 10 μM): 1.19
Relative PNPLA3 mRNA levels ([3]; mTOR pathway inhibitors, 10 μM, human hepatocytes, qRT-PCR, mean of three replicates ± standard deviation): 0.98 ± 0.17

SMILES: COc1cc(Nc2ncc(F)c(Nc3ccc4c(n3)N(COP(=O)([O-])[O-])C(=O)C(C)(C)O4)n2)cc(OC)c1OC.[Na+].[Na+] [R788, fostamatinib disodium hexahydrate]
Fold change (Log 2) vs untreated [4]: −1.38
Relative PNPLA3 mRNA levels ([3]; Syk pathway inhibitors, 10 μM, human hepatocytes, normalized to B2M, mean of three replicates ± standard deviation): 0.77 ± 0.02

SMILES: CC(C)n1nc(-c2cc3cc(O)ccc3[nH]2)c2c(N)ncnc21 [PP242, Torkinib]
Relative PNPLA3 mRNA levels [1]: 0.44 ± 0.10
Relative PNPLA3 mRNA levels RQ ([2]; 0.01 μM): 1.07
Relative PNPLA3 mRNA levels RQ ([2]; 0.1 μM): 0.74
Relative PNPLA3 mRNA levels RQ ([2]; 1 μM): 0.39
Relative PNPLA3 mRNA levels RQ ([2]; 10 μM): 0.63
Relative COL1A1 mRNA levels RQ ([5]; 0.01 μM): 1.09
Relative COL1A1 mRNA levels RQ ([5]; 0.1 μM): 1.02
Relative COL1A1 mRNA levels RQ ([5]; 1 μM): 0.40
Relative COL1A1 mRNA levels RQ ([5]; 10 μM): 0.18
Relative PNPLA3 mRNA levels [3]: 0.50 ± 0.02
